Measured values: the NIST ThermoML archive (doi:10.1021/je400512u)

Assay: xn = mol fraction of the nth substance listed
Conditions: 101 kPa, Liquid; for viscosity: Concentric cylinders viscometry; for speed of sound: Pulse-echo method; for mass density: Vibrating tube method

CCCCCCCO [heptan-1-ol] + C1COCCO1
Conditions | mass density [kg/m3] | speed of sound [m/s] | viscosity [mPa·s]
298.15 K, x1 = 0.0505 | 1008.57 | 1339.3 | 1.217
298.15 K, x1 = 0.1 | 991.286 | 1333.2 | 1.247
298.15 K, x1 = 0.1501 | 975.785 | 1328.6 | 1.296
298.15 K, x1 = 0.2 | 961.05 | 1324.7 | 1.344
298.15 K, x1 = 0.25 | 947.06 | 1321.5 | 1.415
298.15 K, x1 = 0.2997 | 934.312 | 1319 | 1.5
298.15 K, x1 = 0.3502 | 922.561 | 1317.4 | 1.605
298.15 K, x1 = 0.4001 | 911.608 | 1316 | 1.713
298.15 K, x1 = 0.4498 | 901.275 | 1315.2 | 1.834
298.15 K, x1 = 0.4998 | 891.612 | 1314.9 | 2
298.15 K, x1 = 0.55 | 882.643 | 1314.8 | 2.169
298.15 K, x1 = 0.6004 | 874.251 | 1315.2 | 2.365
298.15 K, x1 = 0.6501 | 866.177 | 1316 | 2.593
298.15 K, x1 = 0.7002 | 858.585 | 1316.9 | 2.861
298.15 K, x1 = 0.7493 | 851.217 | 1318.2 | 3.154
298.15 K, x1 = 0.7999 | 844.345 | 1318.9 | 3.524
298.15 K, x1 = 0.85 | 837.74 | 1321.5 | 3.943
298.15 K, x1 = 0.8998 | 831.478 | 1323.2 | 4.464
298.15 K, x1 = 0.9498 | 825.31 | 1325.4 | 5.075
298.15 K, x1 = 1 | 819.73 | 1328.3 | 5.869
303.15 K, x1 = 0.0505 | 1003.12 | 1317.9 | 1.12
303.15 K, x1 = 0.1 | 985.996 | 1312.3 | 1.145
303.15 K, x1 = 0.1501 | 970.647 | 1308.1 | 1.188
303.15 K, x1 = 0.2 | 956.055 | 1304.6 | 1.229
303.15 K, x1 = 0.25 | 942.208 | 1301.8 | 1.291
303.15 K, x1 = 0.2997 | 929.584 | 1299.7 | 1.365
303.15 K, x1 = 0.3502 | 917.951 | 1298.4 | 1.455
303.15 K, x1 = 0.4001 | 907.108 | 1297.2 | 1.547
303.15 K, x1 = 0.4498 | 896.876 | 1296.6 | 1.653
303.15 K, x1 = 0.4998 | 887.314 | 1296.6 | 1.794
303.15 K, x1 = 0.55 | 878.474 | 1296.7 | 1.937
303.15 K, x1 = 0.6004 | 870.13 | 1297.3 | 2.104
303.15 K, x1 = 0.6501 | 862.139 | 1298.3 | 2.296
303.15 K, x1 = 0.7002 | 854.631 | 1299.3 | 2.521
303.15 K, x1 = 0.7493 | 847.338 | 1300.7 | 2.766
303.15 K, x1 = 0.7999 | 840.45 | 1301.7 | 3.073
303.15 K, x1 = 0.85 | 834.009 | 1304.3 | 3.419
303.15 K, x1 = 0.8998 | 827.706 | 1306.1 | 3.847
303.15 K, x1 = 0.9498 | 821.704 | 1308.3 | 4.346
303.15 K, x1 = 1 | 816.183 | 1311.3 | 4.989
308.15 K, x1 = 0.0505 | 997.647 | 1296.7 | 1.034
308.15 K, x1 = 0.1 | 980.695 | 1291.6 | 1.055
308.15 K, x1 = 0.1501 | 965.496 | 1287.8 | 1.093
308.15 K, x1 = 0.2 | 951.048 | 1284.7 | 1.129
308.15 K, x1 = 0.25 | 937.338 | 1282.2 | 1.183
308.15 K, x1 = 0.2997 | 924.84 | 1280.4 | 1.247
308.15 K, x1 = 0.3502 | 913.324 | 1279.4 | 1.324
308.15 K, x1 = 0.4001 | 902.591 | 1278.5 | 1.403
308.15 K, x1 = 0.4498 | 892.463 | 1278.2 | 1.497
308.15 K, x1 = 0.4998 | 882.999 | 1278.4 | 1.617
308.15 K, x1 = 0.55 | 874.248 | 1278.6 | 1.739
308.15 K, x1 = 0.6004 | 865.991 | 1279.4 | 1.881
308.15 K, x1 = 0.6501 | 858.083 | 1280.5 | 2.044
308.15 K, x1 = 0.7002 | 850.647 | 1281.7 | 2.234
308.15 K, x1 = 0.7493 | 843.436 | 1283.3 | 2.44
308.15 K, x1 = 0.7999 | 836.632 | 1284.4 | 2.696
308.15 K, x1 = 0.85 | 830.254 | 1287.2 | 2.985
308.15 K, x1 = 0.8998 | 824.01 | 1289 | 3.338
308.15 K, x1 = 0.9498 | 818.076 | 1291.4 | 3.747
308.15 K, x1 = 1 | 812.61 | 1294.5 | 4.27
313.15 K, x1 = 0.0505 | 992.162 | 1275.6 | 0.957
313.15 K, x1 = 0.1 | 975.379 | 1270.9 | 0.976
313.15 K, x1 = 0.1501 | 960.33 | 1267.6 | 1.009
313.15 K, x1 = 0.2 | 946.025 | 1264.9 | 1.041
313.15 K, x1 = 0.25 | 932.425 | 1262.8 | 1.088
313.15 K, x1 = 0.2997 | 920.079 | 1261.3 | 1.143
313.15 K, x1 = 0.3502 | 908.677 | 1260.6 | 1.209
313.15 K, x1 = 0.4001 | 898.054 | 1260 | 1.278
313.15 K, x1 = 0.4498 | 888.028 | 1259.9 | 1.361
313.15 K, x1 = 0.4998 | 878.663 | 1260.3 | 1.463
313.15 K, x1 = 0.55 | 870.001 | 1260.7 | 1.568
313.15 K, x1 = 0.6004 | 861.838 | 1262.1 | 1.691
313.15 K, x1 = 0.6501 | 854.006 | 1262.9 | 1.83
313.15 K, x1 = 0.7002 | 846.648 | 1264.3 | 1.991
313.15 K, x1 = 0.7493 | 839.512 | 1266 | 2.165
313.15 K, x1 = 0.7999 | 832.79 | 1267.4 | 2.38
313.15 K, x1 = 0.85 | 826.48 | 1270.6 | 2.62
313.15 K, x1 = 0.8998 | 820.289 | 1272.2 | 2.913
313.15 K, x1 = 0.9498 | 814.421 | 1274.6 | 3.25
313.15 K, x1 = 1 | 809.011 | 1277.7 | 3.677
318.15 K, x1 = 0.0505 | 986.663 | 1254.7 | 0.888
318.15 K, x1 = 0.1 | 970.046 | 1250.5 | 0.905
318.15 K, x1 = 0.1501 | 955.144 | 1247.5 | 0.934
318.15 K, x1 = 0.2 | 940.982 | 1245.2 | 0.964
318.15 K, x1 = 0.25 | 927.545 | 1243.5 | 1.003
318.15 K, x1 = 0.2997 | 915.295 | 1242.4 | 1.052
318.15 K, x1 = 0.3502 | 904.009 | 1242 | 1.109
318.15 K, x1 = 0.4001 | 893.497 | 1241.6 | 1.168
318.15 K, x1 = 0.4498 | 883.572 | 1241.7 | 1.241
318.15 K, x1 = 0.4998 | 874.304 | 1242.3 | 1.33
318.15 K, x1 = 0.55 | 865.728 | 1243 | 1.419
318.15 K, x1 = 0.6004 | 857.642 | 1244.1 | 1.526
318.15 K, x1 = 0.6501 | 849.902 | 1245.5 | 1.645
318.15 K, x1 = 0.7002 | 842.622 | 1247 | 1.783
318.15 K, x1 = 0.7493 | 835.561 | 1248.9 | 1.93
318.15 K, x1 = 0.7999 | 828.821 | 1250.6 | 2.114
318.15 K, x1 = 0.85 | 822.668 | 1253.3 | 2.313
318.15 K, x1 = 0.8998 | 816.551 | 1255.8 | 2.557
318.15 K, x1 = 0.9498 | 810.743 | 1258.4 | 2.835
318.15 K, x1 = 1 | 805.383 | 1261.1 | 3.186
323.15 K, x1 = 0.0505 | 981.158 | 1233.5 | 0.827
323.15 K, x1 = 0.1 | 964.707 | 1230.6 | 0.842
323.15 K, x1 = 0.1501 | 949.953 | 1228.1 | 0.867
323.15 K, x1 = 0.2 | 935.93 | 1226.2 | 0.893
323.15 K, x1 = 0.25 | 922.628 | 1224.8 | 0.928
323.15 K, x1 = 0.2997 | 910.503 | 1224 | 0.971
323.15 K, x1 = 0.3502 | 899.329 | 1223.9 | 1.021
323.15 K, x1 = 0.4001 | 888.925 | 1223.7 | 1.073
323.15 K, x1 = 0.4498 | 879.103 | 1224.1 | 1.136
323.15 K, x1 = 0.4998 | 869.929 | 1224.9 | 1.213
323.15 K, x1 = 0.55 | 861.446 | 1225.7 | 1.29
323.15 K, x1 = 0.6004 | 853.441 | 1227 | 1.383
323.15 K, x1 = 0.6501 | 845.785 | 1228.6 | 1.486
323.15 K, x1 = 0.7002 | 838.579 | 1230.3 | 1.604
323.15 K, x1 = 0.7493 | 831.593 | 1232.4 | 1.73
323.15 K, x1 = 0.7999 | 824.83 | 1234.3 | 1.883
323.15 K, x1 = 0.85 | 818.738 | 1236.9 | 2.053
323.15 K, x1 = 0.8998 | 812.671 | 1239.1 | 2.258
323.15 K, x1 = 0.9498 | 807.031 | 1241.8 | 2.489
323.15 K, x1 = 1 | 801.731 | 1245.1 | 2.777
